The target of this experiment is Cannabinoid receptor 2 (Homo sapiens, UniProt P34972). In words: cAMP Assay: CHO cells expressing human CB1 or CB2 receptors are seeded 17-24 hours prior to the experiment 50.000 cells per well in a black 96 well plate with flat clear bottom (Corning Costar #3904) in DMEM (Invitrogen No. 31331), 1×HT supplement, with 10% fetal calf serum and incubated at 5% CO2 and 37° C. in a humidified incubator. The growth medium was exchanged with Krebs Ringer Bicarbonate buffer with 1 mM IBMX and incubated at 30° C. for 30 min. Compounds were added to a final assay volume of 100 μl and incubated for 30 min at 30° C. Using the cAMP-Nano-TRF detection kit the assay (Roche Diagnostics) was stopped by the addition of 50 μl lysis reagent (Tris, NaCl, 1.5% Triton X100, 2.5% NP40, 10% NaN3) and 50 μl detection solutions (20 μM mAb Alexa700-cAMP 1:1, and 48 μM Ruthenium-2-AHA-cAMP) and shaken for 2 h at room temperature. The time-resolved energy transfer is measured by a TRF reader (Evotec Technologies GmbH), equipped with a ND:YAG laser as excitation source. The plate is measured twice with the excitation at 355 nm and at the emission with a delay of 100 ns and a gate of 100 ns, total exposure time 10 s at 730 (bandwidth 30 nm) or 645 nm (bandwidth 75 nm), respectively. […].

Here are results for one compound from ChEMBL document CHEMBL5725892, “Triazolo[4,5-D]pyrimidine derivatives” (2017).

Chain of Cannabinoid receptor 2 (P34972 whole entry): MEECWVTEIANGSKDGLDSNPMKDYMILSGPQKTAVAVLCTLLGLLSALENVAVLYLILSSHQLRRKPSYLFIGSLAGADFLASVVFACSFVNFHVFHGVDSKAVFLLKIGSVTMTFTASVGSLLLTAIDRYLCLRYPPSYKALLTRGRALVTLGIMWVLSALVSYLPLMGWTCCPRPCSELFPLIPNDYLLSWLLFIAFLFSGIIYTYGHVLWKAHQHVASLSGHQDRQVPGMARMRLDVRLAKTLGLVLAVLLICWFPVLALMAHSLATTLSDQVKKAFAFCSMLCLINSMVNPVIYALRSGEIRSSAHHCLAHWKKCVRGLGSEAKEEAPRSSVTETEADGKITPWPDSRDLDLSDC

With `CC(=O)N[C@H]1CCN(c2nc(O[C@@H](C)C(F)(F)F)nc3c2nnn3Cc2ccccc2C(F)(F)F)C1`, the EC50 turned out to be 78.9 nM.

A word on the EC50: it is the midpoint of the concentration-response curve. A high value points to weaker potency.
